pIC50: −log10 of the molar value. Read-outs that look alike come from different tables or passages of the source.
What was measured:
MRC5 = assay: MTS proliferation assay, MRC5; type: cell-based; details: MRC5, 72 h incubation, read-out: MTS proliferation assay IC 50 MRC5
Procedure: (§1) Cell lines are cultured in RPMI-1640 tissue culture medium containing either 5% or 10% fetal calf serum, 0.05 mM 2-mercaptoethanol, 2 mM glutamine and penicillin/streptomycin 50 μg/ml (complete medium) (Sigma, Buchs, Switzerland). General growth conditions are 37° C. and 7.5% CO2.
(§2) The assay is performed in 96 well tissue culture plates. The cells (range: 1.5*10^3-10^4) are seeded out in 80 μl complete medium 24 h prior to compound treatment. The test compounds are added in 20 μl complete medium containing max 5% DMSO. The final compound concentrations in the assays are 10 μM, 3 μM, 1 μM and 0.3 μM, respectively. The assay plates are incubated for 72 h at culture conditions. The MTS reagent is prepared according to the manufacturer's protocol (Promega G1111). 20 μl MTS reagent are added to each well, the assay plates are quickly spun and incubated for another 3 h at culture conditions. Subsequently, the plates are shortly shaked and absorption measured with a microplate-reader at 492 nm.

[1] = tested on: adherent cells or suspension cells; assay: Hoechst 33342 nuclear staining (fraction of apoptotic nuclei); type: cell-based; parameters: key: 0 relating to no activity; 1 relating to weak activity comprising less than 70% of the cells; score 2 relating to strong activity comprising more than 70% of the cells
Procedure: as §1
This assay is performed in 96 well tissue culture plates. Appropriate number of cells (adherent cells: 3-5*10^3, suspension cells: 8-10*10^3) are being seeded out in 80 μl complete medium. Adherent cells are incubated for 24 h for proper spreading out before addition of test compounds while suspension cells are immediately treated with test compounds after seeding out. The test compounds are added in 20 μl complete medium containing max 5% DMSO. […] After 24 h or 48 h incubation at culture conditions, 10 μl medium containing Hoechst 33342 dye (Sigma B-2261) at 2-5 μg/ml are added to each well. The assay plates are then further incubated for 30 minutes and subsequently analyzed with a standard inverted fluorescence microscope.
The readout allows the determination of the fraction of apoptotic nuclei as well as other morphological criteria specific for apoptosis as a function of the treatment. The following scores are used: 0 relating to no activity, 1 relating to weak activity comprising less than 70% of the cells and score 2 relating to strong activity comprising more than 70% of the cells.

HeLa = assay: MTS proliferation assay, HeLa; type: cell-based, human; details: 72 h incubation, read-out: MTS proliferation assay IC 50 HeLa
Procedure: as §1
(§3) The following human cell lines (either EGFP transfected or not) are being used: HeLa (ATCC: CCL-2), KB (ATCC: CCL-17), MCF7 (ATCC: HTB-22), SK-BR-3 (ATCC: HTB-30), SK-Mel 1 (ATCC: HTB-67), SK-Mel 28 (ATCC: HTB-72), PC-3 (ATCC: CRL-1435), SW 480 (ATCC: CCL-228), NCl-H460 (ATCC: HTB-177), NCl-H1792 (ATCC: CRL-5895), HT1080 (ATCC: CCL-21), Jurkat (ATCC: TIB-152), Ramos (ATCC: CRL-1596), Raji (ATCC: CCL-86), H9 (ATCC: HTB-176), Hut78 (ATCC: TIB-161), K562 (ATCC: CCL 243), HL-60 (ATCC: CCL 240), U-87MG (ATCC: HTB-14), HepG2 (ATCC: HB-8065), U-2 OS (ATCC: HTB-96), Saos-2 (ATCC: HTB-85), U937 (ATCC: CRL 1593), Hs 578T (ATCC: HTB 126), HBL-100 (ATCC: HTB 124), Molt-4 (ATCC: CRL 1582).
as §2

Jurkat = assay: MTS proliferation assay, Jurkat; type: cell-based, human; details: 72 h incubation, read-out: MTS proliferation assay IC 50 Jurkat
Procedure: as §1, §3, §2

CON=C(Cn1c(-c2nonc2N)nc2ccccc21)c1ccc(OC)cc1 (mixture of isomers) [Example 38]
pIC50 (MRC5): < 6.00
Hoechst 33342 nuclear staining score ([1]; H460, conc 0.01 μm): 0
Hoechst 33342 nuclear staining score ([1]; H460, conc 0.1 μm): 0
Hoechst 33342 nuclear staining score ([1]; H460, conc 1 μm): 0
Hoechst 33342 nuclear staining score ([1]; HeLa, conc 0.01 μm): 0
Hoechst 33342 nuclear staining score ([1]; HeLa, conc 0.1 μm): 0
Hoechst 33342 nuclear staining score ([1]; HeLa, conc 1 μm): 0
Hoechst 33342 nuclear staining score ([1]; Jily, conc 0.01 μm): 0
Hoechst 33342 nuclear staining score ([1]; Jily, conc 0.1 μm): 0
Hoechst 33342 nuclear staining score ([1]; Jily, conc 1 μm): 0
Hoechst 33342 nuclear staining score ([1]; Jurkat, conc 0.01 μm): 0
Hoechst 33342 nuclear staining score ([1]; Jurkat, conc 0.1 μm): 0
Hoechst 33342 nuclear staining score ([1]; Jurkat, conc 1 μm): 0
Hoechst 33342 nuclear staining score ([1]; MRC5, conc 0.01 μm): 0
Hoechst 33342 nuclear staining score ([1]; MRC5, conc 0.1 μm): 0
Hoechst 33342 nuclear staining score ([1]; MRC5, conc 1 μm): 0
Hoechst 33342 nuclear staining score ([1]; PBLs, conc 0.01 μm): 0
Hoechst 33342 nuclear staining score ([1]; PBLs, conc 0.1 μm): 0
Hoechst 33342 nuclear staining score ([1]; PBLs, conc 1 μm): 0
pIC50 (HeLa): 6.00 to 7.00
pIC50 (Jurkat): 6.00 to 7.00

Nc1nonc1-c1nc2ccccc2n1CC(=O)c1ccccc1Cl [Example 32]
pIC50 (MRC5): < 6.00
Hoechst 33342 nuclear staining score ([1]; H460, conc 0.01 μm): 0
Hoechst 33342 nuclear staining score ([1]; H460, conc 0.1 μm): 0
Hoechst 33342 nuclear staining score ([1]; H460, conc 1 μm): 0
Hoechst 33342 nuclear staining score ([1]; HeLa, conc 0.01 μm): 0
Hoechst 33342 nuclear staining score ([1]; HeLa, conc 0.1 μm): 0
Hoechst 33342 nuclear staining score ([1]; HeLa, conc 1 μm): 0
Hoechst 33342 nuclear staining score ([1]; Jily, conc 0.01 μm): 0
Hoechst 33342 nuclear staining score ([1]; Jily, conc 0.1 μm): 0
Hoechst 33342 nuclear staining score ([1]; Jily, conc 1 μm): 0
Hoechst 33342 nuclear staining score ([1]; Jurkat, conc 0.01 μm): 0
Hoechst 33342 nuclear staining score ([1]; Jurkat, conc 0.1 μm): 0
Hoechst 33342 nuclear staining score ([1]; Jurkat, conc 1 μm): 2 (score 2 relating to strong activity comprising more than 70% of the cells)
Hoechst 33342 nuclear staining score ([1]; MRC5, conc 0.01 μm): 0
Hoechst 33342 nuclear staining score ([1]; MRC5, conc 0.1 μm): 0
Hoechst 33342 nuclear staining score ([1]; MRC5, conc 1 μm): 0
Hoechst 33342 nuclear staining score ([1]; PBLs, conc 0.01 μm): 0
Hoechst 33342 nuclear staining score ([1]; PBLs, conc 0.1 μm): 0
Hoechst 33342 nuclear staining score ([1]; PBLs, conc 1 μm): 0
pIC50 (HeLa): 6.00 to 7.00
pIC50 (Jurkat): 6.00 to 7.00

Nc1nonc1-c1nc2ccccc2n1CC(=NO)c1ccccc1 (mixture of isomers) [Example 17]
Hoechst 33342 nuclear staining score ([1]; H460, conc 0.01 μm): 0
Hoechst 33342 nuclear staining score ([1]; H460, conc 0.1 μm): 0
Hoechst 33342 nuclear staining score ([1]; H460, conc 1 μm): 0
Hoechst 33342 nuclear staining score ([1]; HeLa, conc 0.01 μm): 0
Hoechst 33342 nuclear staining score ([1]; HeLa, conc 0.1 μm): 0
Hoechst 33342 nuclear staining score ([1]; HeLa, conc 1 μm): 0
Hoechst 33342 nuclear staining score ([1]; Jily, conc 0.01 μm): 0
Hoechst 33342 nuclear staining score ([1]; Jily, conc 0.1 μm): 0
Hoechst 33342 nuclear staining score ([1]; Jily, conc 1 μm): 0
Hoechst 33342 nuclear staining score ([1]; Jurkat, conc 0.01 μm): 0
Hoechst 33342 nuclear staining score ([1]; Jurkat, conc 0.1 μm): 0
Hoechst 33342 nuclear staining score ([1]; Jurkat, conc 1 μm): 0
Hoechst 33342 nuclear staining score ([1]; MRC5, conc 0.01 μm): 0
Hoechst 33342 nuclear staining score ([1]; MRC5, conc 0.1 μm): 0
Hoechst 33342 nuclear staining score ([1]; MRC5, conc 1 μm): 0
Hoechst 33342 nuclear staining score ([1]; PBLs, conc 0.01 μm): 0
Hoechst 33342 nuclear staining score ([1]; PBLs, conc 0.1 μm): 0
Hoechst 33342 nuclear staining score ([1]; PBLs, conc 1 μm): 0
pIC50 (HeLa): < 6.00
pIC50 (Jurkat): < 6.00

CNc1nonc1-c1nc2ccccc2n1CC(=O)c1ccc(Cl)cc1 [Example 3, Methyl-{4-[1-(4-chlorophenacyl)-1H-benzimidazol-2-yl]-furazan-3-yl}-amine]
pIC50 (MRC5; Homo sapiens): < 6.00
Hoechst 33342 nuclear staining score ([1]; HeLa, conc 0.01 μm): 0
Hoechst 33342 nuclear staining score ([1]; HeLa, conc 0.1 μm): 0
Hoechst 33342 nuclear staining score ([1]; HeLa, conc 1 μm): 0
Hoechst 33342 nuclear staining score ([1]; Jurkat, conc 0.01 μm): 0
Hoechst 33342 nuclear staining score ([1]; Jurkat, conc 0.1 μm): 0
Hoechst 33342 nuclear staining score ([1]; Jurkat, conc 1 μm): 0
Hoechst 33342 nuclear staining score ([1]; MRC5, conc 0.01 μm): 0
Hoechst 33342 nuclear staining score ([1]; MRC5, conc 0.1 μm): 0
Hoechst 33342 nuclear staining score ([1]; MRC5, conc 1 μm): 0
Hoechst 33342 nuclear staining score ([1]; PBLs, conc 0.01 μm): 0
Hoechst 33342 nuclear staining score ([1]; PBLs, conc 0.1 μm): 0
Hoechst 33342 nuclear staining score ([1]; PBLs, conc 1 μm): 0
pIC50 (Jurkat; Homo sapiens): 6.00 to 7.00

From patent USRE42890E1, “Furazanobenzimidazoles” (Basilea Pharmaceutica AG, priority 2003, dated 2011)
